This experiment concerns BDF1 mice, P388 leukemia ip, median survival T/C. Briefly: NCI In Vivo Anticancer Drug Screen. Data for tumor model P388 Leukemia (intraperitoneal) in B6D2F1 (BDF1) mice. As to conditions: endpoint: median survival time, higher = longer survival. The procedure, abridged: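 Compound-treated tumour-bearing mice were compared with vehicle-treated controls. Survival was recorded, and the value is the treated-group measurement divided by the control-group measurement (T/C).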

[1] abbreviates: dose: 50.0 mg/kg/injection, schedule: Q01DX009 (ip), vehicle: saline.
[2] abbreviates: dose: 100.0 mg/kg/injection, schedule: Q01DX009 (ip), vehicle: saline.
Where [3] appears, read: dose: 100.0 mg/kg/injection, schedule: Q04DX003 (ip), vehicle: saline with Tween-80.
[4] abbreviates: dose: 200.0 mg/kg/injection, schedule: Q04DX003 (ip), vehicle: saline with Tween-80.
Setting [5] is: dose: 100.0 mg/kg/injection, schedule: Q04DX003 (ip), vehicle: saline.
Where [6] appears, read: dose: 200.0 mg/kg/injection, schedule: Q04DX003 (ip), vehicle: saline.
[7] abbreviates: dose: 25.0 mg/kg/injection, schedule: Q01DX009 (ip), vehicle: saline with Tween-80.
Setting [8] is: dose: 50.0 mg/kg/injection, schedule: Q01DX009 (ip), vehicle: saline with Tween-80.
Where [9] appears, read: dose: 100.0 mg/kg/injection, schedule: Q01DX009 (ip), vehicle: saline with Tween-80.
[10] abbreviates: dose: 200.0 mg/kg/injection, schedule: Q01DX009 (ip), vehicle: saline with Tween-80.

“And” between values parts separate entries of the source, which are not always exact repeats. Equal entries are not always repeated. Inconclusive results and toxic doses are left out.

On to `O=C1c2ccccc2C(=O)N1CNc1ncccn1`, for which the T/C is 95 % of control (dose: 6.25 mg/kg/injection, schedule: Q01DX005 (ip), vehicle: saline with Tween-80); 98 % of control (dose: 12.5 mg/kg/injection, schedule: Q01DX005 (ip), vehicle: saline with Tween-80); 90 % of control (dose: 25.0 mg/kg/injection, schedule: Q01DX005 (ip), vehicle: saline with Tween-80); 108 % of control (dose: 100.0 mg/kg/injection, schedule: Q01DX005 (ip), vehicle: saline with Tween-80); 105 % of control (dose: 200.0 mg/kg/injection, schedule: Q01DX005 (ip), vehicle: saline with Tween-80).
As for `CC(C)COC(=O)C1(N)CCCC1`, the T/C is 100 % of control under setting [1]; 95 % of control and 108 % of control (dose: 66.0 mg/kg/injection, schedule: Q01DX009 (ip), vehicle: saline with Tween-80); 177 % of control under setting [2]; 108 % of control and 116 % of control (dose: 150.0 mg/kg/injection, schedule: Q01DX009 (ip), vehicle: saline with Tween-80); 95 % of control (dose: 200.0 mg/kg/injection, schedule: Q01DX009 (ip), vehicle: saline).
Take `c1csc(-c2nc3ccccc3s2)c1`: the T/C reads like this: under setting [3], 109 % of control; under setting [4], 100 % of control; (dose: 400.0 mg/kg/injection, schedule: Q04DX003 (ip), vehicle: saline with Tween-80) 100 % of control.
For the molecule `CCCCCCCCSSCCCCCCCC`, the T/C under setting [5] is 95 % of control; the T/C under setting [6] was 100 % of control; the T/C (dose: 400.0 mg/kg/injection, schedule: Q04DX003 (ip), vehicle: saline) is 95 % of control.
As for `O=C(Nc1ccc(C2=NCCCN2)cc1)Nc1cccc(C(=O)Nc2ccc(C3=NCCCN3)cc2)c1`, the T/C by setting is: (dose: 16.5 mg/kg/injection, schedule: Q01DX009 (ip), vehicle: saline with Tween-80) 200 % of control; under setting [7], 272 % of control.
As for `O=C(N=C1C=CC(=NC(=O)OCc2ccccc2)C=C1)OCc1ccccc1`, the T/C is 95 % of control (dose: 100.0 mg/kg/injection, schedule: Q04DX003 (ip), vehicle: Klucel (hydroxypropylcellulose) (HPC)); 100 % of control (dose: 200.0 mg/kg/injection, schedule: Q04DX003 (ip), vehicle: Klucel (hydroxypropylcellulose) (HPC)); 100 % of control (dose: 400.0 mg/kg/injection, schedule: Q04DX003 (ip), vehicle: Klucel (hydroxypropylcellulose) (HPC)).
With `N=C(N)c1nn(C2OC(CO)C(O)C2O)c2ncnc(N)c12` (stereo unspecified), the T/C is 114 % of control and 117 % of control (dose: 10.0 mg/kg/injection, schedule: Q01DX009 (ip), vehicle: saline); 109 % of control and 118 % of control (dose: 10.0 mg/kg/injection, schedule: Q04DX003 (ip), vehicle: saline); 117 % of control and 124 % of control (dose: 20.0 mg/kg/injection, schedule: Q01DX009 (ip), vehicle: saline); 122 % of control (dose: 20.0 mg/kg/injection, schedule: Q04DX003 (ip), vehicle: saline); 104 % of control (dose: 40.0 mg/kg/injection, schedule: Q04DX003 (ip), vehicle: saline); 95 % of control (dose: 80.0 mg/kg/injection, schedule: Q04DX003 (ip), vehicle: saline).
As for `O=C1c2ccccc2C(=O)c2c(O)c3c(c(O)c21)CC=CC3`, the T/C is, setting by setting: (dose: 3.12 mg/kg/injection, schedule: Q01DX009 (ip), vehicle: saline with Tween-80) 107 % of control; (dose: 6.25 mg/kg/injection, schedule: Q01DX009 (ip), vehicle: saline with Tween-80) 112 % of control; (dose: 12.5 mg/kg/injection, schedule: Q01DX009 (ip), vehicle: saline with Tween-80) 104 % of control; under setting [7], 98 % of control; under setting [8], 98 % of control.
For the molecule `CCOC(=O)C(N)CSC(c1ccccc1)(c1ccccc1)c1ccccc1` (stereo unspecified), the T/C (dose: 9.6 mg/kg/injection, schedule: Q04DX003 (ip), vehicle: saline) was 95 % of control; the T/C (dose: 14.0 mg/kg/injection, schedule: Q04DX003 (ip), vehicle: saline) was 100 % of control; the T/C (dose: 33.0 mg/kg/injection, schedule: Q04DX003 (ip), vehicle: saline) was 122 % of control; the T/C (dose: 50.0 mg/kg/injection, schedule: Q04DX003 (ip), vehicle: saline) is 155 % of control; the T/C under setting [5] is 175 % of control; the T/C (dose: 132.0 mg/kg/injection, schedule: Q04DX003 (ip), vehicle: saline) was 181 % of control. Further, the T/C is 181 % of control and 215 % of control under setting [6]; 163 % of control (dose: 300.0 mg/kg/injection, schedule: Q04DX003 (ip), vehicle: saline).
`CCOS(C)(=O)=O`: the T/C is 90 % of control under setting [1], 100 % of control under setting [2], 100 % of control under setting [5] and 105 % of control under setting [6].
`N#Cc1cn(C2OC(CO)C(O)C2O)c2ncnc(N)c12` (stereo unspecified): the T/C is 163 % of control (dose: 0.37 mg/kg/injection, schedule: Q04DX003 (ip), vehicle: other); 105 % of control (dose: 0.38 mg/kg/injection, schedule: Q01DX009 (ip), vehicle: other); 159 % of control (dose: 0.56 mg/kg/injection, schedule: Q04DX003 (ip), vehicle: other); 172 % of control (dose: 0.83 mg/kg/injection, schedule: Q04DX003 (ip), vehicle: other); 154 % of control (dose: 0.88 mg/kg/injection, schedule: Q04DX003 (ip), vehicle: other); 204 % of control (dose: 1.25 mg/kg/injection, schedule: Q04DX003 (ip), vehicle: other). In addition, the T/C (dose: 1.33 mg/kg/injection, schedule: Q04DX003 (ip), vehicle: other) was 200 % of control; the T/C (dose: 2.0 mg/kg/injection, schedule: Q04DX003 (ip), vehicle: other) is 150 % of control; the T/C (dose: 3.0 mg/kg/injection, schedule: Q04DX003 (ip), vehicle: other) was 100 % of control.
Regarding `O=C(Nc1ncn[nH]1)C(=O)Nc1ncn[nH]1`, the T/C by setting is: under setting [9], 102 % of control; under setting [10], 100 % of control.
As to `COC(=O)C(CSCSC)NC(=O)/C=C\c1ccccc1` (stereo unspecified), the T/C reads like this: under setting [8], 100 % of control; under setting [9], 104 % of control; under setting [3], 95 % of control; under setting [10], 109 % of control; under setting [4], 91 % of control; (dose: 400.0 mg/kg/injection, schedule: Q01DX009 (ip), vehicle: saline with Tween-80) 90 % of control.

These data come from PubChem BioAssay AID328 (DTP/NCI, 2004).
